Experimental data as given in patent US12527270B2, “Promoting regeneration and transformation in plants” (KWS SAAT SE & CO. KGAA, priority 2020, dated 2026).

System: Beta vulgaris calli
Experiment: DEX-inducible 35S-BnBBM-GR: shoot formation and callus-based transformation efficiency
Format: cell-based, Beta vulgaris (sugar beet)
Details: BnBBM-GR with DEX-induction
Procedure: By applying the following method callus for Beta vulgaris (sugar beet) has been induced: Micropropagated shoots were used as starting material. Shoots were multiplied in medium containing MS salts, 30 g/l sucrose, 0.25 mg/l benzyladenine (BAP) and 10 g/l agar (pH 6.0). To induce friable callus, leaf explants were incubated for 7-8 weeks in media having MS salts, 15 g/l sucrose, 2 mg/l BAP, and 8 g/l agar (pH 6.0).
For Agrobacterium-mediated transformation friable calli were mounted in media containing MS salts, 30 g/l sucrose, 1 mg/l GA3, 1 mg/l TDZ, and 10 g/l agar (pH 6.0) and kept for 1 week in the dark at 24° C. Agrobacterium harbouring the vector of IPR232-pS-01 (FIG. 12) was grown in medium containing 5 g/l tryptone, 2.5 g/l yeast extract, 1 g/l NaCl, 5 g/l mannitol, 0.1 g/l MgSO4×7H2O, 0.25 g/l KH2PO4, 1 g/l glutamic acid (pH 7.0) supplemented with the appropriate antibiotics, at 28° C., for 24 h. […]
For quantification of transformation rate a) the inducible BnBBM system based on DEX/GR as described above as well as a constitutive overexpression of BnBBM have been tested on an amenable genotype and a recalcitrant genotype. […]

## C[C@@H]1C[C@H]2[C@@H]3CCC4=CC(=O)C=C[C@]4(C)[C@@]3(F)[C@@H](O)C[C@]2(C)[C@@]1(O)C(=O)CO [DEX, dexamethasone]
Amenable genotype
  transformation efficiency: around 70%
Recalcitrant genotype
  transformation efficiency: around 18%
